# Test results published in paper doi:10.1101/2022.12.23.521429v4, “Structural perspective on the design of selective DYRK1B inhibitors” (biorxiv, 2025).
# Experiments:
# [1] = target: T1, DYRK1A kinase domain (126-490) (Homo sapiens, UniProt Q13627); test: kinase activity assay; assay type: biochemical; details: co-substrate and buffer of the KM determination not told
# T1 construct: also printed 124-490 in b15 and 126-489), non-cleavable C-terminal His-tag kept; E. coli LOBSTR; Tyr321 phosphorylated; b63 prints Q9Y463 (swapped with DYRK1B)
# [2] = target: T2, DYRK1B kinase domain (78-442) (Homo sapiens, UniProt Q9Y463); test: Sypro Orange thermal shift assay; assay type: binding; details: read-out: shift in Tm
# T2 construct: kinase domain 78-442, C-terminal TEV site and His-tag (ENLYFQ*GHHHHHH), His-tag cleaved by TEV; E. coli LOBSTR; Tyr273 autophosphorylated
Km [1] [µM],Compound,ΔTm at 10 µM [2] [°C]
118,Nc1ncnc2c1ncn2[C@@H]1O[C@H](COP(=O)(O)OP(=O)(O)OP(=O)(O)O)[C@@H](O)[C@H]1O [ATP],
,COc1cc(N2CCN(C)CC2)ccc1Nc1nccc(-c2cn(C)c3cnccc23)n1 [AZ191],12
